According to patent publication US20110294836A1, “ARYL GPR119 AGONISTS AND USES THEREOF” (METABOLEX, INC., priority 2008, published 2011):

What follows are compounds tested against T1, GPR119 (Homo sapiens, UniProt Q8TDV5) (assay: Stimulation of cAMP in CHO cell line stably expressing GPR119 (HTRF cAMP assay)). Settings: GPR119 stably expressing CHO cells, 30 minutes, relative to maximal activity (100%) of 5-Ethyl-2-{4-[4-(4-tetrazol-1-yl-phenoxymethyl)-thiazol-2-yl]-piperidin-1-yl}-pyrimidine.
T1 construct: expressed in transfected cells
T1 sequence (Q8TDV5 1-335): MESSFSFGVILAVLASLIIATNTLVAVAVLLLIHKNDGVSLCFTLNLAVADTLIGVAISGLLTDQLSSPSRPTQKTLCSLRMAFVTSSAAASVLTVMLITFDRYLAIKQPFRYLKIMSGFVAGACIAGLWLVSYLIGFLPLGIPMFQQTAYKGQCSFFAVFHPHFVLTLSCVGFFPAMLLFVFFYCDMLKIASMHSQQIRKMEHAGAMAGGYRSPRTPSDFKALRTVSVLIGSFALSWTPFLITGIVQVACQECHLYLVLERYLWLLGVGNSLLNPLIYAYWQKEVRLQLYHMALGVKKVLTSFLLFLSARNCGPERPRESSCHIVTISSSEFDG
Type: cell-based
Method: This assay was developed using a stable cell line expressing GPR119, generated as follows. GPR119 (co-pending, co-owned patent application U.S. Ser. No. 11/964,461) was cloned into Gateway pDEST 40vector (Invitrogen), using the Gateway cloning system (invitrogen) according to the manufacturer's instructions. A stable cell line was generated by transfecting a 10 cm plate of CHO cells (source) with Bug of this construct using Transit-CHO transfection kit (Minis). CHO cells were plated the day prior to transfection at a density of 3,000,000 cells/plate. Clones were selected using the antibiotic G418 at 500 ug/ml. 23 clones were picked and assayed for the expression of the receptor by measuring changes in intracellular cAMP levels in response to a known GPR119 agonist.
To measure cAMP activity in response to GPR119 agonist, the clones were plated in 96 well plates at 17500 cells per well. On the day after plating, cells were incubated with the GPR119 agonist at 10 μM for 30 minutes in Ham's F12 Media (Gibco) with 0.04% DMSO. cAMP was measured using the cAMP dynamic kit from Cis Bio (Bedford, Mass.) according to the manufacturer's instructions. Briefly, cells were lysed, and cAMP levels determined by competitive immunoassay using D2 labeled cAMP, and europium cryptate tagged anti cAMP antibody. When in close proximity, the D2 and europium cryptate undergo fluorescence resonance energy transfer (FRET), which is measured as a fluorescence ratio (665 nm/620 nm). Unlabelled cAMP in the cell lysate competed with the D2 labeled cAMP for the europium crypate labeled antibody. The resulting decrease in FRET signal corresponded to intracellular cAMP levels. Fluorescence was read on a BMG Labtech PHERAstar, software version 1.50.
The clone with the greatest response to GPR119 agonist was selected for the screening assay.
Compounds were dissolved in 100% DMSO to a concentration of […] to provide stock solutions. To determine activity against GPR119, compounds were incubated with GPR119 stably expressing cells (described above), at 6-8 concentrations ranging from 0.00003 to 10 micromolar, in 96 well plates, in 50 ul of Ham's F12 media for 30 minutes. Cells were plated at 17500 cells per well 1 day before running the assay. All compounds were also screened against the parental CHO cells. cAMP was measured using the cAMP dynamic kit from Cis Bio (Bedford, Mass.), according to the manufacturer's instructions. Briefly, cells were lysed and cAMP levels determined by competitive immunoassay using D2 labeled cAMP, and europium cryptate tagged anti cAMP antibody. When in close proximity, the D2 and europium cryptate undergo fluorescence resonance energy transfer (FRET), which is measured as a fluorescence ratio (665 nm/620 nm). Unlabelled cAMP in the cell lysate competed with the D2 labeled cAMP for the europium crypate labeled antibody. The resulting decrease in FRET signal corresponded to intracellular cAMP levels.
To determine percent activity for a tested compound, the FRET signal value obtained at a particular concentration are compared to the Maximal FRET signal value obtained for 5-Ethyl-2-{4-[4-(4-tetrazol-1-yl-phenoxymethyl)-thiazol-2-yl]-piperidin-1-yl}-pyrimidine. The maximal activity of 5-Ethyl-2-{4-[4-(4-tetrazol-1-yl-phenoxymethyl)-thiazol-2-yl]-piperidin-1-yl}-pyrimidine is designated as 100% activity. Typically, the concentration of 5-Ethyl-2-{4-[4-(4-tetrazol-1-yl-phenoxymethyl)-thiazol-2-yl]-piperidin-1-yl}-pyrimidine in the assay was approximately 0.1 μM. The synthesis of 5-Ethyl-2-{4-[4-(4-tetrazol-1-yl-phenoxymethyl)-thiazol-2-yl]-piperidin-1-yl}-pyrimidine is disclosed in co-owned pending U.S. patent application Ser. No. 11/964,461, herein incorporated by reference. Activities of compounds in Table 1 below are expressed as % activity at 3 μM compound compared to the maximal activity of 5-Ethyl-2-{4-[4-(4-tetrazol-1-yl-phenoxymethyl)-thiazol-2-yl]-piperidin-1-yl}-pyrimidine at 3 μM.

% Activity at 3 μM Compound [%]	Compound
59	CC(C)(C)OC(=O)N1CCC(c2cccc(COc3ccc(S(C)(=O)=O)cc3F)n2)CC1 [Example 2, tert-Butyl 4-(6-((2-fluoro-4-(methylsulfonyl)phenoxy)methyl)pyridin-2-yl)piperidine-1-carboxylate]
61	CC(C)(C)OC(=O)N1CCC(c2cccc(COc3ccc(-n4cnnn4)cc3F)n2)CC1 [Example 4, tert-Butyl 4-(6-((2-fluoro-4-(1H-tetrazol-1-yl)phenoxy)methyl)pyridin-2-yl)piperidine-1-carboxylate]
73	CCc1cnc(N2CCC(c3cccc(COc4ccc(-n5cnnn5)cc4F)n3)CC2)nc1 [Example 5, 5-ethyl-2-(4-(6-((2-fluoro-4-(1H-tetrazol-1-yl)phenoxy)methyl)pyridin-2-yl)piperidin-1-yl)pyrimidine]
63	Fc1cc(-n2cnnn2)ccc1OCc1cccc(C2CCN(c3ncc(C(F)(F)F)cn3)CC2)n1 [Example 6, 2-(4-(6-((2-fluoro-4-(1H-tetrazol-1-yl)phenoxy)methyl)pyridin-2-yl)piperidin-1-yl)-5-(trifluoromethyl)pyrimidine]
70	CC(C)(C)OC(=O)N1CCC(c2nccc(COc3ccc(-n4cnnn4)cc3F)n2)CC1 [Example 7, tert-Butyl 4-(4-((2-fluoro-4-(1H-tetrazol-1-yl)phenoxy)methyl)pyrimidin-2-yl)piperidine-1-carboxylate]
61	CC(C)(C)OC(=O)N1CCC(c2cccc(OCc3ccc(S(C)(=O)=O)cc3)c2)CC1 [Example 9, tert-Butyl 4-(3-(4-(methylsulfonyl)benzyloxy)phenyl)piperidine-1-carboxylate]
59	CCc1cnc(N2CCC(c3cccc(OCc4ccc(S(C)(=O)=O)cc4)c3)CC2)nc1 [Example 10, 5-ethyl-2-(4-(3-(4-(methylsulfonyl)benzyloxy)phenyl)piperidin-1-yl)pyrimidine]
33	CC(C)c1noc(C(=O)N2CCC(c3cccc(COc4ccc(S(C)(=O)=O)cc4F)n3)CC2)n1 [Example 13, (4-(6-((2-fluoro-4-(methylsulfonyl)phenoxy)methyl)pyridin-2-yl)piperidin-1-yl)(3-isopropyl-1,2,4-oxadiazol-5-yl)methanone]
73	CC(C)(C)OC(=O)N1CCC(c2cc(COc3ccc(-n4cnnn4)cc3F)ccn2)CC1 [Example 14, tert-Butyl 4-(4-((2-fluoro-4-(1H-tetrazol-1-yl)phenoxy)methyl)pyridin-2-yl)piperidine-1-carboxylate]
